Measured values published in ChEMBL document CHEMBL4507276 (2021).

What was measured:
Details in all cases: Compound concentration 1000.0 nM
[1] = molecular target: Ribosomal protein S6 kinase alpha-6 (Homo sapiens) (UniProt Q9UK32)
[2] = molecular target: Cyclin-dependent kinase 4 (Homo sapiens) (UniProt P11802)
[3] = molecular target: Serine/threonine-protein kinase Nek3 (Homo sapiens) (UniProt P51956)
[4] = molecular target: T1, Ephrin type-A receptor 1 (Homo sapiens) (UniProt P21709)
T1 sequence (whole entry): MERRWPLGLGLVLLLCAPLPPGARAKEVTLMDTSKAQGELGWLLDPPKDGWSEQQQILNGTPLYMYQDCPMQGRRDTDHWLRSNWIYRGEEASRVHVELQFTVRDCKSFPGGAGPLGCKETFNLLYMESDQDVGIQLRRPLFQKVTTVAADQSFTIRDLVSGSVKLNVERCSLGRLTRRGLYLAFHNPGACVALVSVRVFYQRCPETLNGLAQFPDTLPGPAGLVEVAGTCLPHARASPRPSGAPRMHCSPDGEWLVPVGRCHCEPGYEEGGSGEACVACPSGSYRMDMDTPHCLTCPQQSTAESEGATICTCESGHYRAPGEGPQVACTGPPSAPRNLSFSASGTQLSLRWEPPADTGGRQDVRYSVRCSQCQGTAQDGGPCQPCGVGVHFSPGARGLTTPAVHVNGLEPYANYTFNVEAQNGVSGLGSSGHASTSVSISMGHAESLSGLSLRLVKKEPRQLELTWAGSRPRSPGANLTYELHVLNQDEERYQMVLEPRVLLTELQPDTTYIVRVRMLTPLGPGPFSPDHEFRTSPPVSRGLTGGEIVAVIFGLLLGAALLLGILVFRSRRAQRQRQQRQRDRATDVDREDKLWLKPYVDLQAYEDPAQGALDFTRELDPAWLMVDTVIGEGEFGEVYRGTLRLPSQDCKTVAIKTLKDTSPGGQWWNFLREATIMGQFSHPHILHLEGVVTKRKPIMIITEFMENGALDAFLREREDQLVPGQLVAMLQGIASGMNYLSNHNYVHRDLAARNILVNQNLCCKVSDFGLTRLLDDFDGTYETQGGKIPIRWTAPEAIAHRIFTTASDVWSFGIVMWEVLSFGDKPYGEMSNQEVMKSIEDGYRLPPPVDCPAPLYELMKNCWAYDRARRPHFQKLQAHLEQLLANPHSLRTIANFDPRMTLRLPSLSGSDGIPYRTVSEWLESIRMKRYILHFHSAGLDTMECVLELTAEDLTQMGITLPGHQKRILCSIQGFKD

[5] = tested on: Tyrosine-protein kinase ABL1 (Homo sapiens), P00519 [F317I]
Chain of Tyrosine-protein kinase ABL1 (Homo sapiens), P00519 [F317I] (P00519 whole entry F317I): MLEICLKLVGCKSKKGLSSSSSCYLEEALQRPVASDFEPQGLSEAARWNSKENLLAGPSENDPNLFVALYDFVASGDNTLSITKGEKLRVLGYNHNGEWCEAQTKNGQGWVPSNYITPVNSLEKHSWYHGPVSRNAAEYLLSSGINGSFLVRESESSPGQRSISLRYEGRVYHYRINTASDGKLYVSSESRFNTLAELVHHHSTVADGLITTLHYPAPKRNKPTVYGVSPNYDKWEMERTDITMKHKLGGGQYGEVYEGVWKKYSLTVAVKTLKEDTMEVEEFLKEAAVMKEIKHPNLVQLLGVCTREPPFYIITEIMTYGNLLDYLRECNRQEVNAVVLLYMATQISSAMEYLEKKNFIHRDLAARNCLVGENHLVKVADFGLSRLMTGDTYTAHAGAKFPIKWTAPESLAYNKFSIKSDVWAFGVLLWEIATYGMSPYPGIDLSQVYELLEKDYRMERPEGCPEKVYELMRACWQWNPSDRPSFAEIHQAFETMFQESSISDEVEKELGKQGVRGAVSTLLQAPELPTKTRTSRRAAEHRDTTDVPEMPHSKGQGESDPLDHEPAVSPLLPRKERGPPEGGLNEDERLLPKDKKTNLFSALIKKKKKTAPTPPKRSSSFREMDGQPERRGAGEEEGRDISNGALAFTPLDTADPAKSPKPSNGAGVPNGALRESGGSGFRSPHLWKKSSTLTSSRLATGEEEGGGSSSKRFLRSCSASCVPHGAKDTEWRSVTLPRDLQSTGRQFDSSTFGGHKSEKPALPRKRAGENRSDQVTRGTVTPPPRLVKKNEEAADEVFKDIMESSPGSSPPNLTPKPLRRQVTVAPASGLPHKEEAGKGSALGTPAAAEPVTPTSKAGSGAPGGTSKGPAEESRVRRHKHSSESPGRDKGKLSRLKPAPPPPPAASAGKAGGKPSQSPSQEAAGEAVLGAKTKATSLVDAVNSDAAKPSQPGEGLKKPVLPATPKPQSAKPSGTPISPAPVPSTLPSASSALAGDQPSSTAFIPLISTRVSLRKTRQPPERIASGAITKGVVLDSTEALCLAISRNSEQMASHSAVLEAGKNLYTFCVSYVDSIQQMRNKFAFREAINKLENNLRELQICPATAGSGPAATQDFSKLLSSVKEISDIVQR

[6] = molecular target: T2, Serine/threonine-protein kinase Nek9 (Homo sapiens) (UniProt Q8TD19)
T2 sequence (whole entry): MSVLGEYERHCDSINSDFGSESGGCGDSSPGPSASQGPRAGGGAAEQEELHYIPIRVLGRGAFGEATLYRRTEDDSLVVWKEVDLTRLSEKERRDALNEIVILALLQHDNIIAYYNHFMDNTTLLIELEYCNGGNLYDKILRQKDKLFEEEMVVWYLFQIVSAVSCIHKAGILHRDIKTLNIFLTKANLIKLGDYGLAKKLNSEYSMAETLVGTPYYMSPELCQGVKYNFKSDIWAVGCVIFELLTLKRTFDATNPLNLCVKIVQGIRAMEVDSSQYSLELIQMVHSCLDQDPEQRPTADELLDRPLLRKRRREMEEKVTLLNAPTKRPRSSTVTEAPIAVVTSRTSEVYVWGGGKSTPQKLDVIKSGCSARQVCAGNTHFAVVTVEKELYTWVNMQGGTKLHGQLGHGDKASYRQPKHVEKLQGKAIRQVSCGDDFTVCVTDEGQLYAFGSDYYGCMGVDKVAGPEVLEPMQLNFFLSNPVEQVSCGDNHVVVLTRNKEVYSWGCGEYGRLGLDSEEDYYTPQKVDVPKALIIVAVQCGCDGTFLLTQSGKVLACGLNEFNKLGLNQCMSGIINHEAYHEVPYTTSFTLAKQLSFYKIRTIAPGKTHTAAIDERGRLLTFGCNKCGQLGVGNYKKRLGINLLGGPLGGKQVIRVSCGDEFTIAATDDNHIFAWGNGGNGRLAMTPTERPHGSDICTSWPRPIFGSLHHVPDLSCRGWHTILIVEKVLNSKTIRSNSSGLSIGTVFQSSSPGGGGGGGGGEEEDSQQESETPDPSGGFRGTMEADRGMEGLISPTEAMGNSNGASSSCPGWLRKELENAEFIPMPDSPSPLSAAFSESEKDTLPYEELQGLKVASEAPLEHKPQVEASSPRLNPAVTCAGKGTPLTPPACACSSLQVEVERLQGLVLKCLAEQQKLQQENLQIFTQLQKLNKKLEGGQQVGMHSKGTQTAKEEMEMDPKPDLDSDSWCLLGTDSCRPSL

[7] = molecular target: Serine/threonine-protein kinase PAK 4 (Homo sapiens) (UniProt O96013)
Chain of Serine/threonine-protein kinase PAK 4 (Homo sapiens) (O96013 whole entry, looked up): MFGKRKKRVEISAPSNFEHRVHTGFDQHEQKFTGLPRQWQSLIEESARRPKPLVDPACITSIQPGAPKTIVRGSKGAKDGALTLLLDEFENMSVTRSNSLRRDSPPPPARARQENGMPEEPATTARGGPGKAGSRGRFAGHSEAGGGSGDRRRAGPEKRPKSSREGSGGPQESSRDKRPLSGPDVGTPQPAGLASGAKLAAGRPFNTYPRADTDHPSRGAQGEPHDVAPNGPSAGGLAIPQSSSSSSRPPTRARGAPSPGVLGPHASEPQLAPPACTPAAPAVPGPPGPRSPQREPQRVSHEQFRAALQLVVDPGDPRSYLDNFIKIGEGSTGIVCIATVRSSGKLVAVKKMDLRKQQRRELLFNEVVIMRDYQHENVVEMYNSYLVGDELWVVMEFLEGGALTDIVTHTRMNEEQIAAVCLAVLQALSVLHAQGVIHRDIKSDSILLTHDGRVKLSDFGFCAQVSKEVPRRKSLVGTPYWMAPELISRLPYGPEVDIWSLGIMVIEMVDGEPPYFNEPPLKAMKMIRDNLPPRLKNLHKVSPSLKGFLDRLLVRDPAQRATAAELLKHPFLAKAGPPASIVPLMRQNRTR

[8] = molecular target: T3, Serine/threonine-protein kinase haspin (Homo sapiens) (UniProt Q8TF76)
T3 sequence (whole entry): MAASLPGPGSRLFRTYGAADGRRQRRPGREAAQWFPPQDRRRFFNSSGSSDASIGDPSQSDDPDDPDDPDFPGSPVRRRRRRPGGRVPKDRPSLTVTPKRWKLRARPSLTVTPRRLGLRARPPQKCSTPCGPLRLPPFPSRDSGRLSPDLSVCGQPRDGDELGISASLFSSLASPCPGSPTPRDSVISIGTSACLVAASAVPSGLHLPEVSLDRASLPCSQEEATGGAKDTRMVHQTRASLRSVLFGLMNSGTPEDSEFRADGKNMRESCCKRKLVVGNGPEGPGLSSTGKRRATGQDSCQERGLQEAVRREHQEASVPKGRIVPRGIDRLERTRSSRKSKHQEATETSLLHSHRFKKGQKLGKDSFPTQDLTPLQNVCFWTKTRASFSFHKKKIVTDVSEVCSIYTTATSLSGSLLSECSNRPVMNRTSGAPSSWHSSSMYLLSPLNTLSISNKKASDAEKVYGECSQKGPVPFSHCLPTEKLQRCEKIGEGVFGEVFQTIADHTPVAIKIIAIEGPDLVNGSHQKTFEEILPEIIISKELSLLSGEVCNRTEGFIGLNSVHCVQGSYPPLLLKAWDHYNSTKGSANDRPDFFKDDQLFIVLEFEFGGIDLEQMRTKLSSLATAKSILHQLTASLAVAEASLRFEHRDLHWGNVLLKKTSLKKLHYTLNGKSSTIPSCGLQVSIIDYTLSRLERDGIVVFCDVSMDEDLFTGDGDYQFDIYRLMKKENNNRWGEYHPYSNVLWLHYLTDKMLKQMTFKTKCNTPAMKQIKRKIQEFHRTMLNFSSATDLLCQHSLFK

Measured: residual activity

Chain of Serine/threonine-protein kinase Nek3 (Homo sapiens) (P51956 whole entry): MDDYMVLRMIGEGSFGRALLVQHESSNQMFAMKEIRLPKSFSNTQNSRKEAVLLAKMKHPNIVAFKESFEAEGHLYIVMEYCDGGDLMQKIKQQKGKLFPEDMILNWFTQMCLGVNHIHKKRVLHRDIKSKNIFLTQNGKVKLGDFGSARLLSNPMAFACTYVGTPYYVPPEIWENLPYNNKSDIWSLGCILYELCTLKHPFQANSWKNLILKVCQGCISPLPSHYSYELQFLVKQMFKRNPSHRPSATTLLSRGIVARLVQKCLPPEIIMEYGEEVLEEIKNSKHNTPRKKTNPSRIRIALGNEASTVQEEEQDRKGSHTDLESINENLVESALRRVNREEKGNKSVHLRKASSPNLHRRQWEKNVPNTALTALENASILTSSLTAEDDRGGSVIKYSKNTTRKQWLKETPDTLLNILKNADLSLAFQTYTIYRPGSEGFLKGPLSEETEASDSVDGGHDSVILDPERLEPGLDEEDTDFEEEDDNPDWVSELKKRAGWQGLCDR
Chain of Ribosomal protein S6 kinase alpha-6 (Homo sapiens) (Q9UK32 whole entry): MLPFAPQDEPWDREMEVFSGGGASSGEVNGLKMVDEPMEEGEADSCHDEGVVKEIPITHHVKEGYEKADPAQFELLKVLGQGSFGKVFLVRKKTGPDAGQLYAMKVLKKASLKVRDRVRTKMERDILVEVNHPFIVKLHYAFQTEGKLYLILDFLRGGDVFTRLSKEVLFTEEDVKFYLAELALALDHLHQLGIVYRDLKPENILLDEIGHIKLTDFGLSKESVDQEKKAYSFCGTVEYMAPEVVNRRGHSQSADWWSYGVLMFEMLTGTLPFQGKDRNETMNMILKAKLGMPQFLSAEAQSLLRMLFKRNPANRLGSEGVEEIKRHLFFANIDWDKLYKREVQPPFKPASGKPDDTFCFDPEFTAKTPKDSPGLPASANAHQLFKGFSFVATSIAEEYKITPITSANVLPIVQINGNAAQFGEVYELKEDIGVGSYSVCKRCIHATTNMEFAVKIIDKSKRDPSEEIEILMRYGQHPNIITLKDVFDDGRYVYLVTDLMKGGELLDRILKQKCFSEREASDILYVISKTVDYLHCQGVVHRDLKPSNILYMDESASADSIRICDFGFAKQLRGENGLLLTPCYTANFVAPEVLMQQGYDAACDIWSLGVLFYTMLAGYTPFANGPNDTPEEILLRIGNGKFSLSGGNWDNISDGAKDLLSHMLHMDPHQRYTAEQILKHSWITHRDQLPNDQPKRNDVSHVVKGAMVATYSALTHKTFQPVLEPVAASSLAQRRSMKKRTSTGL
Chain of Cyclin-dependent kinase 4 (Homo sapiens) (P11802 whole entry): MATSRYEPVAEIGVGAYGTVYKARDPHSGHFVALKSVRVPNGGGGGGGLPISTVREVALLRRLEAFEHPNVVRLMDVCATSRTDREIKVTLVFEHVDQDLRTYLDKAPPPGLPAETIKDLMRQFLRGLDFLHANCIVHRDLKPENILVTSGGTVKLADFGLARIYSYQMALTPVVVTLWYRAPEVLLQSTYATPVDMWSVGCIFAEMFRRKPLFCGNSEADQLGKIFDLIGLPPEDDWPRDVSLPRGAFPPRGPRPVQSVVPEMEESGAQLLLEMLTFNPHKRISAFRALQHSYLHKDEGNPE

CN(C)C(=O)Cn1cc(-c2nc(C3(c4ccc(-c5cnc(N)nc5)cc4)CC3)no2)cn1 [BI 0153]
inactive: [1] 83% | [2] 67% | [3] 57% | [4] 100% | [5] 76% | [6] 100% | [7] 100% | [8] 74%

CN(C)C(=O)Cn1cc(-c2nc([C@@](C)(c3ccc(-c4cnc(N)nc4)cc3)C3CC3)no2)cn1 [BI 665915]
inactive: [1] 96% | [2] 94% | [3] 87% | [4] 97% | [5] 96% | [6] 95% | [7] 96% | [8] 100%
